Patent US7022480B1, “Exons of the hSKCa3/KCNN3 gene” (priority 2001, dated 2006)

Legend:
[1] = tested on: SKCa and IKCa1 channel; settings: reported in the literature; cited from earlier work
[2] = target: T1, SK2 channels in Jurkat T lymphocytes (Homo sapiens, UniProt Q9H2S1); assay: Whole-cell patch clamp of native SK2 current in Jurkat T lymphocytes; format: cell-based; settings: transfected Jurkat T lymphocytes
T1 construct: endogenous in cells; host or cells: Jurkat T lymphocytes
Protocol: (§1) PC12 and Jurkat T cells were studied in the whole cell configuration of the patch clamp technique with a holding potential of −80 mV. SK and Kv current amplitude were determined in untransfected cells or in cells transfected with SKCa3-1b-GFP, SKCa3-1b-IRES-GFP, or control constructs (GFP vector alone, GFP-Kv1.7). […] Brightly GFP-positive cells were identified under a fluorescence microscope to allow the analysis of cells expressing high levels of the channel constructs for electrophysiological studies. Control constructs were expressed at equivalently high levels as assessed by the intensity of the GFP signal.
(§2) To activate SK channels, the pipette solution contained (in mM): 145 K^+ aspartate, 2 MgCl2, 10 HEPES, 10 K2EGTA, and 8.5 CaCl2 (1 μM free Ca^2+), pH 7.2, 290–310 mOsm. […] The amplitude of the KV current was measured as the maximum current at 30 mV in 160 Na^+ aspartate. […]
(§3) Human Jurkat T lymphocyte cell line was chosen for these experiments because they express SK2 channels and no other SK channels, along with voltage-gated Kv1.3 channels that could serve as an internal control (Fanger et al, J. Biol. Chem. 2001; 276: 12249–12256; Grissmer et al, J. Gen. Physiol. 1992; 99: 63–84; Desai et al, J. Biol. Chem. 2000; 275: 39954–39963.). Using the electrophysiological protocol described above for PC12 cells, SK2 and Kv1.3 currents in Jurkat cells were measured. […]

[3] = tested on: SKCa3-1a currents; assay: Co-expression with SKCa3-1a in mammalian cells, calcium-activated currents; format: cell-based; settings: untagged or with a GFP tag
Source text: When normally expressed in mammalian cells, native or green fluorescence protein (GFP) tagged SKCa3-1a produces robust apamin- and Leiurus toxin-sensitive calcium-activated currents (Shakkottai et al., J. Biol. Chem. 276 (46): 43145–43151, 2001.).

[4] = target: T2, Kv1.3 channels in Jurkat T lymphocytes (Homo sapiens, UniProt P22001); assay: Whole-cell patch clamp of Kv1.3 current in Jurkat T lymphocytes (internal control); format: cell-based; settings: transfected Jurkat T lymphocytes
T2 construct: endogenous in cells; host or cells: Jurkat T lymphocytes
Protocol: as §1, §2, §3

[5] = tested on: GFP-SKCa1 currents; assay: Co-expression with GFP-SKCa1 in mammalian cells, calcium-activated currents; format: cell-based; settings: expressed in mammalian cells
Source text: GFP-SKCa1 produces robust calcium-activated currents when expressed in COS-7 cells (Shakkottai et al., J. Biol. Chem. 276 (46): 43145–43151, 2001.). When co-expressed with fluorescently labeled SKCa3-1b (Tomita et al, 2002 Mol. Psych. In press) or fluorescently labeled SKCa3-1c, dominant-negative suppression of SKCa3-1a is seen. Similarly, fluorescently labeled SKCa3-1b (Tomita et al, 2002 Mol. Psych. In press) and fluorescently labeled SKCa3-1c dominant-negatively suppress endogenous SKCa currents present in PC12 cells (Sun et al., J. Hum. Genet. 46, 463–470, 2001.).

GFP-SKCa1 currents, sequence (Q92952 2-543): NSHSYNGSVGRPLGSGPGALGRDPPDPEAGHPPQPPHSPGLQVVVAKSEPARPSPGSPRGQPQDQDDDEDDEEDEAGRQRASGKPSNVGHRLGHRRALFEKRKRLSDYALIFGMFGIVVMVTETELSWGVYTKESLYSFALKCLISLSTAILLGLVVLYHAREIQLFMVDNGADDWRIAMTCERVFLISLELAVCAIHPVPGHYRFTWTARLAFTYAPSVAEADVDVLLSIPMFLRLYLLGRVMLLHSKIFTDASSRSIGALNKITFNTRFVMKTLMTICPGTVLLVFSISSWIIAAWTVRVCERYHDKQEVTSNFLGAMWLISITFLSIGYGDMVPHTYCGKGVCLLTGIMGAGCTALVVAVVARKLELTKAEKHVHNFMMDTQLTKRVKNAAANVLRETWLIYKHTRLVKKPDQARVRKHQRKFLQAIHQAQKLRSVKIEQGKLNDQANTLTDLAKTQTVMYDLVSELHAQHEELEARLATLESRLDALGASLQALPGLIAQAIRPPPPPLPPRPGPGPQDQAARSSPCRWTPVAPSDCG
SKCa3-1a currents, sequence (Q9UGI6 81-731): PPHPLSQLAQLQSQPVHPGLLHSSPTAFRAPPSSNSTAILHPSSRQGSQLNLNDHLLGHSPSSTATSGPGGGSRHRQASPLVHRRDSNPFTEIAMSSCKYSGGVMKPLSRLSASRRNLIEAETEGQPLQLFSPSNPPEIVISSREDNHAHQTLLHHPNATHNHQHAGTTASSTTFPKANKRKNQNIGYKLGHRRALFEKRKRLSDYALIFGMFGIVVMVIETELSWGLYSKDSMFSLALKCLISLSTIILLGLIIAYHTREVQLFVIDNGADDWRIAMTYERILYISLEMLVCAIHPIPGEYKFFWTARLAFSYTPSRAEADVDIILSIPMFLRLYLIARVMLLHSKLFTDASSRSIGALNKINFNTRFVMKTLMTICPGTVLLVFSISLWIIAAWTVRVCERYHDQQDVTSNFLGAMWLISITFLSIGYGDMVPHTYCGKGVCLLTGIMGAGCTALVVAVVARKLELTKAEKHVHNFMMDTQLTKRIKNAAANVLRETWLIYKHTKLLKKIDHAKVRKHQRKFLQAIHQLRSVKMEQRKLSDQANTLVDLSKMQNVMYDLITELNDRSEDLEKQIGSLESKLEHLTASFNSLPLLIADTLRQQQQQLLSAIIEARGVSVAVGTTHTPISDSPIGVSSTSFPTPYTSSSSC
T2 sequence (P22001 whole entry): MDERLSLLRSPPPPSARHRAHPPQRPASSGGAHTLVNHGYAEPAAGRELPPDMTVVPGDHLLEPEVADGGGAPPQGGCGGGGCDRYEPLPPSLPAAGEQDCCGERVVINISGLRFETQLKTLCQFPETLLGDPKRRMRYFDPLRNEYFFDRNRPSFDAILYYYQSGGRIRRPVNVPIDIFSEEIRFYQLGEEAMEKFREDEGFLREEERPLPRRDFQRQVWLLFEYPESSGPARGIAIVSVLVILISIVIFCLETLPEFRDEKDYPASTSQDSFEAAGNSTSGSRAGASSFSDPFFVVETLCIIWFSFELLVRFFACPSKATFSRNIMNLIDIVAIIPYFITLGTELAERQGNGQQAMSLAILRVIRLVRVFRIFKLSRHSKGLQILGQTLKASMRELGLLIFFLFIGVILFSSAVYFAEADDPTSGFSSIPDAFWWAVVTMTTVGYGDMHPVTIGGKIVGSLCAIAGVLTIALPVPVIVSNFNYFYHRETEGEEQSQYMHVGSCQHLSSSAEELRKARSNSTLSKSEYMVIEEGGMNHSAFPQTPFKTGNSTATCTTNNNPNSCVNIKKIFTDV
T1 sequence (Q9H2S1 whole entry): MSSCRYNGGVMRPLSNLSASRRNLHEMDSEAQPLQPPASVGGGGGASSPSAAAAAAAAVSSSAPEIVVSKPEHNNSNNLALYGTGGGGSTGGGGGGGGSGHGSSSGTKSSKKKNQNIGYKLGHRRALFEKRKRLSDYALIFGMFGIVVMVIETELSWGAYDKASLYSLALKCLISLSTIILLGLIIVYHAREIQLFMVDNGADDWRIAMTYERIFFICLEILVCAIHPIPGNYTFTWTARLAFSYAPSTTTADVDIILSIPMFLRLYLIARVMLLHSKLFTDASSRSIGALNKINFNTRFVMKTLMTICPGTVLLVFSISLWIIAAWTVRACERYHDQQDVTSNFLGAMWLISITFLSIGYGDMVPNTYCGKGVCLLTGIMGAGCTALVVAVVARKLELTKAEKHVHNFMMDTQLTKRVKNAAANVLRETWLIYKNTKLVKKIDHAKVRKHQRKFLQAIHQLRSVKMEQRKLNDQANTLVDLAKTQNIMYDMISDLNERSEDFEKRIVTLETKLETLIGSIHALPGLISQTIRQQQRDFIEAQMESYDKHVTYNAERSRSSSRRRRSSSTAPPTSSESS

| Molecule | effect on SKCa and IKCa1 channel opening [1] | effect of transfection on native SK2 current [2] | effect of co-expression on SKCa3-1a current [3] | effect of transfection on control Kv1.3 current [4] | effect on GFP-SKCa1 currents [5] |
| --- | --- | --- | --- | --- | --- |
| CCn1c(=O)[nH]c2ccccc21 [1-ethyl-2-benzimidazolinone] | enhance SKCa and IKCa1 channel opening | – | – | – | – |
| SKCa3-1b: isoform variant of the SK3 gene (SEQ ID NO: 2) using exon 1b, lacking N-terminus and S1 segment | – | suppressed | selective dramatic inhibition | unaffected | negative dominantly suppress |
| SKCa3-1c: isoform variant of the SK3 gene (SEQ ID NO: 4) using exon 1c, lacking N-terminus and S1 segment | – | – | comparable results | – | negative dominantly suppress |
